# From patent US20100093861A1, “TREATMENT OF INSULIN RESISTANCE OR DISEASES ASSOCIATED WITH INSULIN RESISTANCE” (Stevia ApS, priority 2006, published 2010)
# How the values were obtained:
# InsII = test: Affymetrix gene chip analysis of KKAy islets: InsII; assay type: in vivo, mice; conditions: ISV vs. KKAy control islets, 9 weeks
# Method: (§1) cRNA preparation and in vitro transcription: In total 6 Affymetrix arrays MOE430 2.0 probe array cartridge were used i.e. for analysis of 3 replicas for the KKAy control group and the ISV group, respectively. Each of the 6 samples consisted of pooled RNA from 3-4 KKAy mice. Preparation of target for hybridization was prepared from 340 ng of total RNA using MessageAmp™ II aRNA Amplification Kits (Ambion), according to the manufacturers instructions. Arrays were hybridised and scanned as described elsewhere (Kruhoffer et al., 2005).
# Pdx1/Ipf1 = test: Relative real time RT-PCR in islets of KKAy mice (Example 3): Pdx1/Ipf1; assay type: in vivo; conditions: 9 weeks
# Method: (§2) Islets were isolated by the collagenase digestion technique. In brief, the animals were anesthetized with pentobarbital (50 mg/kg intraperitoneally) and midline laparotomy was performed. The pancreas was retrogradely filled with 3 mL ice-cold Hanks balanced salt solution (([HBSS] Sigma Chemical, St Louis, Mo.) supplemented with 0.3 mg/ml collagenase Boehringer Mannheim GmbH, Germany). The pancreas was subsequently removed and incubated for 19 minutes at 37° C. After rinsing in HBSS, the islets were handpicked under a stereomicroscope and immediately transferred to a tubes containing 1 ml Trizol (Gibco/Invitrogene, Calsbad, Calif., USA). The islets isolated from the NMRI mice were incubated overnight at 37° C. and 95% normal atmosphere/5% CO2 in 10 ml RPMI 1640 containing 11.1 mmol/L glucose supplemented with penicillin G and 100 μg/mL streptomycin (all Gibco/Invitrogene, Calsbad, Calif., USA).
# (§3) For each group, islets from 3-4 mice (180-200 islets) were pooled in 1 ml Trizol reagent (Gibco/lnvitrogene, Calsbad, Calif., USA) before RNA purification. Total RNA was extracted according to the manufactures' instructions. RNA was quantified by measuring absorbance at 260 and 280 nm. The quality of the RNA was checked by the Agilent 2100 bioanalyzer (Agilent, Santa Clara, USA). […]
# InsI = test: Affymetrix gene chip analysis of KKAy islets: InsI; assay type: in vivo, mice; conditions: ISV vs. KKAy control islets, 9 weeks
# Method: as §1
# IGF-1 = test: Gene expression in islets from diabetic KKAy-mice, real time RT-PCR (Example 2): IGF-1; assay type: in vivo; conditions: islets of KKAy-mice after nine weeks treatment, normalized to 18S rRNA
# Method: (§4) A the end of the nine week period of the in vivo study in example 1 RNA was purified from Islets, muscle, liver and fat from the three experimental groups, using standard techniques as described in Kiergen, RNA easy.
# (§5) Gene expression of PDX-1, IRS1, Beta2, 11beta-HSD-1, Akt1, C/EBP-alpha, CPT1, GLUT2, IGF1, IR and Ins1 was measured with Real time RT-PCR using Taq Man Assays normalized to 18S rRNA, using the standard protocol (ABI, USA). All reagents were obtained from (ABI, USA). All probes are standard probes obtainable from ABI, USA, under the specific probe code number, given in respect of each gene.
# Beta2 = test: Gene expression in islets from diabetic KKAy-mice, real time RT-PCR (Example 2): Beta2; assay type: in vivo; conditions: islets of KKAy-mice after nine weeks treatment, normalized to 18S rRNA
# Method: as §4, §5
# Pax6 = test: Affymetrix gene chip analysis of KKAy islets: Pax6; assay type: in vivo, mice; conditions: ISV vs. KKAy control islets, 9 weeks
# Method: as §1
# C/EBPalpha = test: Relative real time RT-PCR in islets of KKAy mice (Example 3): C/EBPalpha; assay type: in vivo; conditions: 9 weeks
# Method: as §2, §3
# C/EBP-alpha = test: Gene expression in islets from diabetic KKAy-mice, real time RT-PCR (Example 2): C/EBP-alpha; assay type: in vivo; conditions: islets of KKAy-mice after nine weeks treatment, normalized to 18S rRNA
# Method: as §4, §5
# 11-beta-HSD-1 [1] = test: Relative real time RT-PCR in islets of KKAy mice (Example 3): 11-beta-HSD-1; assay type: in vivo; conditions: 9 weeks
# Method: as §2, §3
# Beta2/neuroD = test: Relative real time RT-PCR in islets of KKAy mice (Example 3): Beta2/neuroD; assay type: in vivo; conditions: 9 weeks, normalized to 18S rRNA
# Method: as §2, §3
# 11-beta-HSD-1 [2] = test: Affymetrix gene chip analysis of KKAy islets: 11-beta-HSD-1; assay type: in vivo, mice; conditions: ISV vs. KKAy control islets, 9 weeks
# Method: as §1
compound,measurement,setting,value
"C[C@@]12CC[C@@H]3[C@@](CC[C@H]4[C@@]3(C)CCC[C@@]4(C)C(=O)O)(CC1=O)C2 (single isomer, unassigned; ent-16) [ISV, ent-16-ketobeyeran-19-oic acid]",array: change of InsII expression,InsII,no changes
same,up regulation of Pdx1,Pdx1/Ipf1; RT-PCR,~2 fold
same,"increased expression of Pdx1/Ipf1, ISV group vs. control group",Pdx1/Ipf1; normalized to 18S rRNA,96%
same,array: change of InsI expression,InsI,did not show any statistical significant increase
same,decreased expression of IGF1 compared to standard diet,IGF-1,46%
same,increased expression of beta2 compared to standard diet,Beta2,60%
same,array: increased expression in Pax6,Pax6,1.9 fold
same,reduction of C/EBP-alpha mRNA expression,C/EBPalpha; RT-PCR,2 fold
same,"decreased expression of C/EBPalpha, ISV group vs. control group",C/EBPalpha; normalized to 18S rRNA,49%
same,decreased expression of C/EBPα compared to standard diet,C/EBP-alpha,49%
same,down regulation of 11-beta-HSD-1,11-beta-HSD-1 [1]; RT-PCR,2.5 fold
same,"decreased expression of 11-beta-HSD-1, ISV group vs. control group",11-beta-HSD-1 [1]; normalized to 18S rRNA,61%
same,"increased expression of Beta2/neuroD, ISV group vs. control group",Beta2/neuroD,60%
same,array: change of 11-beta-HSD-1 expression,11-beta-HSD-1 [2],down regulation
